Key:
HER14 cells = assay: viability assay (MTT) with HER14 cells; type: cell-based; conditions: 0.1 nM dianthin-EGF in the presence of SA1641
Procedure: To test the efficacy of the invention, we conducted a viability assay with HER14 cells. These cells are fibroblasts stably transfected with the human epidermal growth factor receptor and therefore target cells for the targeted toxin dianthin-EGF. HER14 cells (2,000 cells/100 μL/well) were seeded into wells of 96-well-cell culture plates and incubated for 24 h in DMEM medium supplemented with 10% fetal calf serum and 1% penicillin/streptomycin at 37° C., 5% CO2 and 98% humidity. The different test substances (see results and FIG. 59) were then added in triplicates in a volume of 25 μL and supplemented with further 25 μL of medium. After an incubation of 72 h, 30 μL 3-(4,5-dimethylthiazol-2-yl)-2,5-diphenyltetrazolium bromide (0.5 mg/mL in water) was added per well and incubated for 2 h. Thereafter, the medium was carefully removed and replaced by an aqueous solution containing 10% (v/v) isopropanol, 5% (w/v) sodium dodecyl sulfate and 400 mM HCl, and incubated for 5 min. Solubilized formazan was photometrically quantitated at […] in a microplate reader (Spectra MAX 340 PC, Molecular Devices, Sunnyvale, Calif., USA). Untreated cells were normalized to 1 and all samples referred to the untreated control. Significance was determined by unpaired two-sample t-tests.

[1] = pH dependent hydrolysis of the hydrazone bond (MALDI-TOF-MS); type: physicochemical; conditions: HCl solution at pH 3; MALDI-TOF-MS at two points in time
A2058 cells = assay: cell viability assay (MTS); type: cell-based, human; conditions: without EGFdianthin
Procedure: (§1) After treatment the cells were incubated for 72 hr at 37° C. before the cell viability was determined by a MTS-assay, performed according to the manufacturer's instruction (CellTiter 96® AQueous One Solution Cell Proliferation Assay, Promega). Briefly, the MTS solution was diluted 20× in DMEM without phenol red (PAN-Biotech GmbH) supplemented with 10% FBS (PAN-Biotech GmbH). The cells were washed once with 200 μL PBS per well, after which 100 μL diluted MTS solution was added per well.
(§2) The plate was incubated for approximately 20-30 minutes at 37° C. Subsequently, the optical density at 492 nm was measured on a Thermo Scientific Multiskan FC plate reader (Thermo Scientific). For quantification the background signal of ‘medium only’ wells was subtracted from all other wells, before the ratio of untreated/treated cells was calculated, by dividing the background corrected signal of untreated wells over the background corrected signal of the treated wells.

HeLa cells = assay: cell viability assay (MTS); type: cell-based, human; conditions: for concentration above which toxicity is seen as single compound: without EGFdianthin
Procedure: as §1, §2

A431 cells = type: cell-based, human; conditions: without EGFdianthin
Procedure: as §1, §2

[2] = system: SK-BR-3, JIMT-1, MDA-MB-468, A431, CaSki, HeLa, A2058; assay: control treatments, relative cell viability on various cancer cell lines; type: cell-based, human; conditions: wide range of concentrations, up to 100.000 pM
Procedure: as §1, §2

Compound	concentration above which toxicity is seen as single compound (A2058 cells)	concentration above which toxicity is seen as single compound (HeLa cells)	concentration above which toxicity is seen as single compound (A431 cells)	other results
C[C@@H]1O[C@@H](O[C@H]2[C@H](OC(=O)[C@]34CCC(C)(C)C[C@H]3C3=CC[C@@H]5[C@@]6(C)CC[C@H](O[C@H]7O[C@H](C(=O)O)[C@@H](O)[C@H](O[C@@H]8OC[C@@H](O)[C@H](O)[C@H]8O)[C@H]7O[C@@H]7O[C@H](CO)[C@H](O)[C@H](O)[C@H]7O)[C@@](C)(C=O)[C@@H]6CC[C@@]5(C)[C@]3(C)CC4)O[C@H](C)[C@H](O[C@@H]3O[C@H](C)[C@@H](O)[C@H](O)[C@H]3O)[C@@H]2O)[C@H](O)[C@H](O)[C@H]1O[C@@H]1OC[C@@H](O)[C@H](O[C@@H]2OC[C@@H](O)[C@H](O)[C@H]2O)[C@H]1O [SA1641]	–	–	–	cell viability (HER14 cells): death of all cells
CC(=O)OC1C(C)OC(OC2C(C)OC(OC(=O)[C@]34CCC(C)(C)CC3C3=CCC5[C@@]6(C)CC[C@H](OC7OC(C(=O)O)C(O)C(OC8OCC(O)C(O)C8O)C7OC7OC(CO)C(O)C(O)C7O)[C@@](C)(/C=N/NC(=O)CCCCCN7C(=O)C=CC7=O)C6CC[C@@]5(C)[C@]3(C)C[C@H]4O)C(OC3OC(C)C(OC4OCC(O)C(OC5OC(CO)C(O)C(O)C5O)C4O)C(O)C3O)C2O)C(O)C1OC1OCC(O)C(O)C1O (stereo partly shown) [SO1861-EMCH]	> 25.000 nM	> 25.000 nM	> 25.000 nM	hydrolysis of the hydrazone bond [1]: gets cleaved
CC(=O)OC1C(C)OC(OC2C(C)OC(OC(=O)[C@]34CCC(C)(C)CC3C3=CCC5[C@@]6(C)CC[C@H](OC7OC(C(=O)O)C(O)C(OC8OCC(O)C(O)C8O)C7OC7OC(CO)C(O)C(O)C7O)[C@@](C)(C=O)C6CC[C@@]5(C)[C@]3(C)C[C@H]4O)C(OC3OC(C)C(OC4OCC(O)C(OC5OC(CO)C(O)C(O)C5O)C4O)C(O)C3O)C2O)C(O)C1OC1OCC(O)C(O)C1O (stereo partly shown) [SO1861]	strong cell viability reduction	strong cell viability reduction	strong cell viability reduction	–
CCN(CC)CCCC(C)Nc1ccnc2cc(Cl)ccc12 (stereo not shown) [chloroquine, reference compound]	–	–	–	effect on SO1861-mediated endosomal escape of dianthin-EGF and cell killing (HeLa cells; SO1861 + dianthin-EGF + 500 nM chloroquine / 500 nM PAMAM (native, thiolated, PEGylated) / 667 nM dendron): inhibit the SO1861-mediated endosomal escape
saporin	–	–	–	influence on relative cell viability [2]: do not or hardly have any influence on cell viability

Reference: patent publication US20220054643A1, “SAPONIN CONJUGATED TO EPITOPE-BINDING PROTEINS” (priority 2018, published 2022)
